Source: patent publication US20150306094A1, “TRANS-4--N,N-DIMETHYLCARBAMOYL-CYCLOHEXYLAMINE FOR TREATING NEGATIVE SYMPTOMS OF SCHIZOPHRENIA” (RICHTER GEDEON NYRT., priority 2012, published 2015)
“Also recorded” adds a separate entry of the source.

Test system: patients with schizophrenia
Test: international, multicenter, double-blind, placebo- and risperidone-controlled, fixed-dose clinical study
Type: in vivo, human
Details: for improvement on the PANSS factor score for negative symptoms, subpopulation with predominantly negative symptoms compared to ITT population: 6 week period, risperidone 4 mg/day, FIG. 1-4
Text: In the clinical study beside the ITT (intent to treat) population which included the total number of the patients, a subgroup was identified including patients with predominantly negative symptoms. This subgroup was identical with the patient subpopulation showing severe negative symptoms defined by Lenert et al. (Schizophrenia Research 71 (2004) 155-165). Patients showing severe negative symptoms were separated into two groups: State 4 and State 6 (definitions are described in Example). State 4 and State 6 together represent the patient subpopulation with predominantly negative symptoms.
The term “change from baseline” refers to the change of the value of the PANSS factor score for negative symptoms compared to the value registered before treatment started (at the baseline visit). The values were calculated using least squares method. The least squares mean (LSM) values resulted from the analysis of covariance (ANCOVA) model with treatment group and study center as factors and the baseline PANSS factor score of negative symptoms as the covariate.
PANSS factor score for negative symptoms: Sum of scores for items 1, 2, 3, 4, and 6 in negative subscale: blunted affect, emotional withdrawal, poor rapport, passive social withdrawal, lack of spontaneity; and items 7 and 16 in general psychopathology subscale: motor retardation, and active social avoidance. Higher scores indicate worsening.
A representative clinical study was conducted as an international, multicenter, double-bind, placebo- and risperidone-controlled, fixed-dose trial. The objective of the study was to evaluate the safety and efficacy of cariprazine fixed doses in patients with schizophrenia. A total of 732 patients were selected using criteria that includes patients who (i) currently meet or have met in the past the Diagnostic and Statistical Manual of Mental Disorders, Fourth Edition, Text Revision (DSM-IV-TR) criteria for schizophrenia (295.30 Paranoid Type, 295.10 Disorganized Type, 295.20 Catatonic Type, or 295.90 Undifferentiated Type) based on the Structured Clinical Interview for DSM-IV (SCID), (ii) have a PANSS total score ≧80 and ≦120, (iii) have a score ≧4 on Clinical Global Impression-Severity scale (iv) have a score ≧4 on at least 2 of the following 4 PANSS positive symptoms: delusions, hallucinatory behavior, conceptual disorganization, and suspiciousness/persecution.
During a 6 week period, 3 doses of cariprazine (1.5 mg/day, 3 mg/day, 4.5 mg/day) was compared to placebo and to an effective dose of risperidone (4.0 mg/day).
Beside the ITT (intent to treat) population which included the total number of the patients, a subgroup was identified including patients with predominantly negative symptoms. […]

Compound | improvement on the PANSS factor score for negative symptoms, subpopulation with predominantly negative symptoms compared to ITT population (cariprazine 1.5, 3, 4.5 mg/day) | effect on primary negative symptoms of schizophrenia (conclusion from the clinical study of the Example) | effect of extrapyramidal symptoms (EPS) on the change of PANSS factor score for negative symptoms (week 6, patients with predominantly negative symptoms vs subgroup without EPS, cariprazine 1.5, 3, 4.5 mg/day, FIG. 5)
CN(C)C(=O)N[C@H]1CC[C@H](CCN2CCN(c3cccc(Cl)c3Cl)CC2)CC1 [cariprazine, trans-4-{2-[4-(2,3-dichlorophenyl)-piperazin-1-yl]-ethyl}-N,N-dimethylcarbamoyl-cyclohexylamine] | numerically higher improvement | can be treated effectively; also recorded: direct effect on negative symptoms | does not seem to be influenced by the treatment emergent EPS
Cc1nc2n(c(=O)c1CCN1CCC(c3noc4cc(F)ccc34)CC1)CCCC2 [risperidone, reference compound] | no difference |  | 
